The results in this text go back to patent publication US20050165074A1, “Amide derivatives as C-KIT modulators” (Ambit Biosciences Corporation, priority 2003, published 2005).

The structures appear in SMILES notation. Some results are limits rather than exact numbers.

KIT (DKIN), sequence (P10721 589-937 limits assumed): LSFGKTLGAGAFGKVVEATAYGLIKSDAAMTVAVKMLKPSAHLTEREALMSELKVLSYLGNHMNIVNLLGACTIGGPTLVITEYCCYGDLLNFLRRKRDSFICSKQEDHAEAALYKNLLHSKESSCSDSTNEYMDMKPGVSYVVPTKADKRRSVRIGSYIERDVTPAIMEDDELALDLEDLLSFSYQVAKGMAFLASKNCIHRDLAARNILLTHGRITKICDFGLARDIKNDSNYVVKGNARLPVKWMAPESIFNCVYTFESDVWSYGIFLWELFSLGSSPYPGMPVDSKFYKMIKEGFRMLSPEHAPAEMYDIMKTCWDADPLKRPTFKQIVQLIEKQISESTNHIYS

The target of one experiment is KIT (JMminus) (Homo sapiens, UniProt P10721). Nature of the experiment: Binding constant (Kd) measurement, phage-displayed kinase competition binding assay, KIT (JMminus). To be noted: c-Kit, JMminus construct. An excerpt: (§1) The term “ND” represents non-determined values.
KIT (JMminus), sequence (P10721 589-937 limits assumed): as above
`Cc1nn(C)c(Cl)c1C(=O)Nc1ccc(CC(=O)Nc2cc(C(C)(C)C)on2)cc1` came in with a Kd of less than 100 nM.

For `CSc1ncc(Br)c(C(=O)Nc2ccc(CC(=O)Nc3cc(C(C)(C)C)on3)cc2)n1`, the dissociation constant (Kd) is less than 100 nM.

As to `CC(C)(C)c1cc(NC(=O)Cc2ccc(NC(=O)c3ccc4cnccc4n3)cc2)no1`, the dissociation constant Kd is less than 100 nM.

`Cn1cc(C(=O)Nc2ccc(CC(=O)Nc3cc(C(C)(C)C)on3)cc2)c2ccccc21`: the Kd is less than 100 nM.

`CC(C)(C)c1cc(NC(=O)Cc2ccc(NC(=O)c3cccc4cccnc34)cc2)no1` returned a Kd of 100 to 1000 nM.

Take `CC(C)(C)c1cc(NC(=O)Cc2ccc(NC(=O)c3cnc4ccccc4c3)cc2)no1`: the Kd was less than 100 nM.

Another experiment has as its target KIT (DKIN) (Homo sapiens, UniProt P10721). Nature of the experiment: Binding constant (Kd) measurement, phage-displayed kinase competition binding assay, KIT (DKIN). Conditions: c-Kit, DKIN construct.
Description: as §1
`COc1ccc(CC(=O)Nc2cc(C(C)(C)C)no2)cc1` yielded an equilibrium dissociation constant (Kd) of 100 to 1000 nM.

In the case of `CC(C)(C)c1cc(NC(=O)Cc2ccc(OCc3ccccc3)cc2)on1`, the Kd is 100 to 1000 nM.

In turn, `COc1cccc2cc([C@H](C)C(=O)Nc3cc(C(C)(C)C)on3)ccc12` came in with a Kd of 1000 to 10000 nM.

The compound `CC(C)(C)c1cc(NC(=O)Cc2ccc(F)cc2)on1` had a dissociation constant (Kd) of 1000 to 10000 nM.

`CC(C)(C)c1cc(NC(=O)Cc2ccc(Cl)cc2)on1` gave a dissociation constant (Kd) of 1000 to 10000 nM.

Consider `CC(C)(C)c1cc(NC(=O)Cc2ccc(Br)cc2)on1`, for which the Kd was in the range of 100 to 1000 nM.
